Patent US8030004B2, “Cell free screening assay and methods of use” (Oregon Health & Science University, priority 2005, dated 2011)
“Also recorded” adds a separate entry of the source.

Experiments:
Format in all cases: biochemical
[1] = tested on: xFANCA, xFANCF, xFANCD2; experiment: Chromatin binding of xFA proteins in replicating S-phase Xenopus egg extracts with sperm chromatin; conditions: for chromatin binding of xFA proteins (xFANCA, xFANCF, xFANCD2): replicating S-phase extracts with sperm chromatin
Procedure: Following replication (60 minutes), chromatin was re-isolated and the same blot was assayed in series for the presence of the xFA proteins indicated. A non-specific band is indicated (asterisk) as a loading control. […] A replication assay was performed to monitor incorporation of α-^32P-GTP during one round of replication in extracts treated as indicated. Total amounts of replication products at 60 minutes following addition of sperm chromatin to non-treated or treated extracts were analyzed by agarose gel electrophoresis and exposure to X-ray film. Band density percentages were determined using a BioRad Molecular PhosphorImager Fx (Kodak screens, Quantity-1 software). […] 1000 sperm pronuclei/ul were added to replicating extracts containing different concentrations of MMC (lanes 3-9). Extracts were otherwise untreated or contained caffeine (lanes 6+7) or a neutralizing anti-xATR antibody (lanes 8+9). MMC-concentrations: 150 μM (lanes 3, 6, 8), 50 μM (lanes 4, 7, 9), or 5 μM (lane 5). […] Sperm chromatin was added to S-phase egg extracts. Xenopus egg extracts were either untreated (−) or aphidicolin was added (+) at the indicated time points following addition of sperm DNA: 0 minutes, pre-nuclear membrane formation; 30 minutes, beginning of replication; 60 minutes, mid-replication; 90 minutes late/post-replication; and 120 minutes, post replication. All chromatin fractions were re-isolated at 135 minutes following addition of sperm DNA, analyzed by SDS-PAGE and immunoblotted as indicated. […] Xenopus egg extracts were treated with beads coupled to preimmune serum (lanes 2, 3, and 5) or beads coupled to anti-xATRIP serum (lanes 1, 4, and 6). Sperm chromatin was added to preimmune or xATRIP depleted extracts and allowed to replicate. Xenopus egg extracts were either untreated or supplemented with aphidicolin (added at 50 minutes following addition of sperm DNA). Chromatin fractions were re-isolated at 70 minutes and assayed for the presence of xFANCD2, xFANCA, xATRIP and xORC-2 by immunoblotting. […]

[2] = tested on: DNA replication; experiment: DNA replication assay of sperm chromatin in S-phase Xenopus egg extracts
Procedure: Following replication (60 minutes), chromatin was re-isolated and the same blot was assayed in series for the presence of the xFA proteins indicated. A non-specific band is indicated (asterisk) as a loading control. […] A replication assay was performed to monitor incorporation of α-^32P-GTP during one round of replication in extracts treated as indicated. Total amounts of replication products at 60 minutes following addition of sperm chromatin to non-treated or treated extracts were analyzed by agarose gel electrophoresis and exposure to X-ray film. Band density percentages were determined using a BioRad Molecular PhosphorImager Fx (Kodak screens, Quantity-1 software). […] 1000 sperm pronuclei/ul were added to replicating extracts containing different concentrations of MMC (lanes 3-9). Extracts were otherwise untreated or contained caffeine (lanes 6+7) or a neutralizing anti-xATR antibody (lanes 8+9). MMC-concentrations: 150 μM (lanes 3, 6, 8), 50 μM (lanes 4, 7, 9), or 5 μM (lane 5). […] Sperm chromatin was added to S-phase egg extracts. Xenopus egg extracts were either untreated (−) or aphidicolin was added (+) at the indicated time points following addition of sperm DNA: 0 minutes, pre-nuclear membrane formation; 30 minutes, beginning of replication; 60 minutes, mid-replication; 90 minutes late/post-replication; and 120 minutes, post replication. All chromatin fractions were re-isolated at 135 minutes following addition of sperm DNA, analyzed by SDS-PAGE and immunoblotted as indicated. […] Xenopus egg extracts were treated with beads coupled to preimmune serum (lanes 2, 3, and 5) or beads coupled to anti-xATRIP serum (lanes 1, 4, and 6). Sperm chromatin was added to preimmune or xATRIP depleted extracts and allowed to replicate. Xenopus egg extracts were either untreated or supplemented with aphidicolin (added at 50 minutes following addition of sperm DNA). Chromatin fractions were re-isolated at 70 minutes and assayed for the presence of xFANCD2, xFANCA, xATRIP and xORC-2 by immunoblotting. […] Xenopus egg extracts were treated with beads coupled to preimmune serum (lanes 1 and 3) or beads coupled to anti-xFANCA serum (lanes 2 and 4). Sperm chromatin was added to preimmune or xFANCA depleted extracts and allowed to replicate. Xenopus egg extracts were either untreated or supplemented with aphidicolin (added at 50 minutes following addition of sperm DNA). Chromatin fractions were re-isolated at 70 minutes and assayed for the presence of xFANCA, xATRIP and xORC-2 by immunoblotting.
Preparation of Xenopus egg extracts: Extracts were prepared from Xenopus eggs according to the method of Murray (Murray, Methods Cell Biol. 36:581-605, 1991). In brief, eggs were de-jellied in 2% cysteine, pH 7.8, washed three times in XB buffer (10 mM KCl, 1 mM MgCl2, […] CaCl2, 10 mM HEPES, 5 mM ethylene glycol tetraacetic acid (EGTA), 1.75% w/v sucrose, pH 7.8) and washed three times in CSF-XB buffer (5 mM EGTA, 2 mM MgCl2). Eggs were crushed by low speed centrifugation (10,000 g, 10 minutes) and the cytoplasmic fraction was cleared by centrifugation (16,000 g, 20 minutes) after the addition of energy mix (15 mM creatine phosphate, 2 mM ATP, 2 mM MgCl2), cytochalasin B (10 μg/ml), cycloheximide (100 μg/ml), and PEFABLOC™ (4-(2-aminoethyl)benzenesulfonylfluoride) (100 μg/ml). In some of the examples described herein, the extracts were released from M to S phase by the addition of CaCl2 to a final concentration of 0.4 mM. In some examples, the released extracts were incubated for 20 minutes at 23° C. Where indicated, mitomycin C (5-150 μM) and caffeine (4 mM), Tautomycin (3 uM), etoposide (30 or 60 uM), and ICRF-193 (150 and 300 uM) were added to S-phase extracts immediately prior to the addition of DNA substrates or sperm chromatin and incubated for the time indicated; aphidicolin (50 ng/1 μl), was added at the time points indicated.

[3] = tested on: xFANCM; experiment: Xenopus egg cell free extract: xFANCM mobility shift (phosphorylation) upon addition of DNA, immunoblot; conditions: natural product screen membranes reprobed with xFANCM antibody (FIG. 7B)
Procedure: 10 ul Xenopus egg extracts was combined with 0.5 ul compound (10 mM) or curcumin (control, 23 uM) then 0.5 ul plasmid DNA (pBluescript, 3.4 ug/ul) was added. The sample was incubated for 45 min at room temperature, then 60 ul of 1×SDS loading buffer. After incubation at 95° C. for 10 min, samples were resolved onto a NUPAGE™ 3-8% tris-acetate gradient gel (Invitrogen) and transferred onto a PVDF membrane (Immobilon P, Millipore).
Of the 235 compounds tested 7 (NP-A3, NP-A7, NP-D8, NP-E3, NP-F2, NP-F8, NP-H8) were positive for modulation of xFANCD2 activation (see FIG. 14). Membranes initially probed with xFANCD2 antibody were reprobed with xFANCM antibody. […] Thus xFANCM can be used as an indicator of Fanconi anemia pathway activation.

[4] = tested on: xMre11; experiment: Induction of xMre11-PPP by plasmid DNA in Xenopus egg cell free extracts, immunoblot
Procedure: FIG. 13A is a digital image of an immunoblot showing Xenopus egg cell free extracts that were incubated with 160 ng/ul circular plasmid dsDNA for 30 min in the presence or absence of the replication initiation inhibitor geminin. Efficiency of replication inhibition was measured by performing a parallel replication assay using an aliquot of the geminin-treated extract (smaller panel in figure FIG. 13A). FIG. 13B is a digital image of an immunoblot showing that non-activated, M-phase egg extracts or CaCl2-activated, S-phase egg extracts were incubated with 160 ng/ul circular plasmid dsDNA. Extract aliquots (1 ul) were taken at the indicated time points and analyzed for xFANCD2 and xMre11. […] FIG. 13C is a digital image of an immunoblot showing Xenopus egg cell free extracts that were incubated with 160 ng/ul circular plasmid dsDNA for 30 min in the presence or absence of the checkpoint kinase inhibitor caffeine. Where indicated, extracts were supplemented with the phosphatase inhibitor, tautomycin, to stabilize xMre11-PPP. Following incubation, 1 ul of extract was analyzed for xFANCD2 and xMre11 by immunoblot. DNA-free extract was used as a size control for xFANCD2-S and xMre11 (lane 1). […]

[5] = tested on: xFANCD2; experiment: Induction of xFANCD2-L by circular plasmid dsDNA in Xenopus egg cell free extracts, immunoblot; conditions: for induction of xFANCD2-L in the presence of circular plasmid DNA: 200 ng/ul circular plasmid dsDNA, etoposide 30 or 60 uM, ICRF-193 150 or 300 uM
Procedure: FIG. 13A is a digital image of an immunoblot showing Xenopus egg cell free extracts that were incubated with 160 ng/ul circular plasmid dsDNA for 30 min in the presence or absence of the replication initiation inhibitor geminin. Efficiency of replication inhibition was measured by performing a parallel replication assay using an aliquot of the geminin-treated extract (smaller panel in figure FIG. 13A). FIG. 13B is a digital image of an immunoblot showing that non-activated, M-phase egg extracts or CaCl2-activated, S-phase egg extracts were incubated with 160 ng/ul circular plasmid dsDNA. Extract aliquots (1 ul) were taken at the indicated time points and analyzed for xFANCD2 and xMre11. […] FIG. 13C is a digital image of an immunoblot showing Xenopus egg cell free extracts that were incubated with 160 ng/ul circular plasmid dsDNA for 30 min in the presence or absence of the checkpoint kinase inhibitor caffeine. Where indicated, extracts were supplemented with the phosphatase inhibitor, tautomycin, to stabilize xMre11-PPP. Following incubation, 1 ul of extract was analyzed for xFANCD2 and xMre11 by immunoblot. DNA-free extract was used as a size control for xFANCD2-S and xMre11 (lane 1). FIG. 13D is a digital image of an immunoblot showing Xenopus egg cell free extracts that were incubated either with bead-coupled anti-xATRIP antibody or with bead-coupled pre-immune serum and incubated with 200 ng/ul circular plasmid dsDNA. Aliquots were taken at different time points and assayed for xFANCD2 by immunoblot. 1 ul of DNA-free extract was used as a size control for xFANCD2-S (lane 5). […] Xenopus egg cell free extracts containing 200 ng/ul of circular plasmid dsDNA were incubated with etoposide (30 uM, lane 2; 60 uM, lane 3) or ICRF-193 (150 uM, lane 4; 300 uM, lane 5). Xenopus egg cell free extracts containing 200 ng/ul of circular plasmid dsDNA but not topoisomerase IIα inhibitor were used as positive control and DNA-free extracts were used as negative control for induction of xFANCD2-L. […]

[6] = high concentration of circular plasmid DNA (100 ng/ul), caffeine or geminin added

Compound: CO[C@@]12[C@H](COC(N)=O)C3=C(C(=O)C(C)=C(N)C3=O)N1C[C@@H]1N[C@@H]12 [MMC, mitomycin C]
- chromatin binding of xFA proteins (xFANCA, xFANCF, xFANCD2) [1]: increased
- replication (incorporation of radiolabeled nucleotides into nascent DNA) ([2]; 60 minutes after addition of sperm chromatin (FIG. 3A top right)): reduced
- DNA replication ([2]; MMC 150 μM): significantly blocked
- DNA replication ([2]; lower MMC concentrations (50 μM, 5 μM)): less inhibited

Compound: C[C@@]12C(=O)OC(=O)[C@]1(C)[C@H]1CC[C@@H]2O1 [NP-B11, cantharidin]
- shift corresponding to xFANCM phosphorylation upon addition of DNA [3]: stimulates the post-translational modification of xFANCM or inhibits the dephosphorylation of xFANCM; also recorded: strongly stimulated

Compound: C[C@@]1(CO)[C@H](O)CC[C@@]2(C)[C@H]1CC[C@H]1C[C@@H]3C[C@@]12CC[C@]3(O)CO [aphidicolin]
- chromatin binding of xFA proteins (xFANCA, xFANCF, xFANCD2) [1]: increased chromatin association

Compound: Cn1c(=O)c2c(ncn2C)n(C)c1=O [caffeine]
- MMC-induced recruitment of xFA proteins to chromatin ([1]; MMC-treated replicating extracts plus caffeine): reversed
- induction of Mre11-PPP in response to dsDNA fragments ([4]; dsDNA fragments generated by HaeIII-digest): inhibited
- induction of xMre11-PPP by circular plasmid DNA [4, 6]: inhibited
- activation of xFANCD2-L by circular plasmid DNA [5, 6]: not significantly affected
- rescue of MMC-blocked replication ([2]; MMC 150 μM plus caffeine): could not be rescued
- rescue of MMC-reduced replication ([2]; MMC-treated extracts plus caffeine (FIG. 3A top right)): rescued
- rescue of MMC-inhibited replication ([2]; lower MMC concentration (50 μM) plus caffeine): could be rescued

Compound: COc1cc([C@@H]2c3cc4c(cc3[C@@H](O[C@@H]3O[C@@H]5CO[C@@H](C)O[C@H]5[C@H](O)[C@H]3O)[C@H]3COC(=O)[C@H]23)OCO4)cc(OC)c1O [etoposide]
- induction of xFANCD2-L in the presence of circular plasmid DNA [5]: significantly blocked

Compound: ICRF-193
- induction of xFANCD2-L in the presence of circular plasmid DNA [5]: significantly blocked
